{
  "source": "patent US20190388513A1",
  "about": "“OIL BASED FORMULATIONS FOR SUBLINGUAL AND BUCCAL DELIVERY” (BIOLINGUS IP LLC, priority 2017, published 2019)",
  "key": {"[1]": {"assay": "Sublingual resveratrol: plasma resveratrol levels (Cmax, AUC) in rats, LC-MS/MS (Example 7)", "format": "in vivo", "details": "sublingual 10 mg in oil formulation (CSSR6d) versus oral 10 mg in sugar syrup, SD rats, up to 24 hours", "experimental": "Resveratrol was suspended in 50% sugar solution and the mixture spun until homogenous for oral ingestion. Two groups of each three SD rats were treated. The treatment groups were administered as follows: 1) sublingual resveratrol in oil formulation (Group 1: SL-resveratrol 10 mg in oil formulation); 2) oral administered resveratrol in sugar syrup (Group 2: OP resveratrol 10 mg in sugar syrup). Nine blood sampling time points up to 24 hours post dosing per anima […]. Plasma samples bio analysis was performed with LC-MS/MS method."}, "[2]": {"system": "diabetic mice", "assay": "Sublingual insulin aspart study: blood glucose in diabetic mice (Example 1)", "format": "in vivo, mice (strain C57/BL6)", "details": "sublingual 100 U/kg insulin aspart in TPMCEu oil, without exenatide, versus SC insulin aspart 1 IU/kg", "experimental": "For the experiments described below, mice of approximately 60 g were used. 5 μL of the resulting oil mixture comprising Insulin Aspart was placed underneath the tongue of anesthetised diabetic mice. […] Five groups of five mice were treated. […] These were compared to 4) 1 IU/kg subcutaneously administered insulin aspart (SC-Insulin aspart) and 5) sublingual oil placebo ([…])."}, "[3]": {"system": "diabetic mice", "assay": "Sublingual insulin glargine study, solid dosage formulation: blood glucose in diabetic mice (Example 2)", "format": "in vivo, mice (strain C57/BL6)", "details": "sublingual insulin glargine 10 or 50 IU/kg absorbed on solid dosage formulation, versus SC insulin glargine 1 IU/kg", "experimental": "One solid dosage formulation was placed underneath the tongue of anesthetised diabetic mice. Blood glucose was measured at 0 h, 1 h, 2 h, 4 h, 8 h, 20 h and 24 h.\nFour groups of five mice were treated. The treatment groups were administered as follows: 1) sublingual solid dosage formulation placebo (Group 1: SL-CSSR 4; wherein “CSSR-4” means a solid formulation containing vitamin E, PEG 200 and flavouring oils). 2) 1 IU/kg subcutaneously administered insulin glargine (Group 2: SC-Insulin glargine 1 IU/kg); 3) 10 IU/kg sublingually administered insulin glargine (Group 3: SL-Insulin glargine 10 IU/kg); and 4) 50 IU/kg sublingually administered insulin glargine (Group 4: SL-Insulin glargine 50 IU/kg). For animal studies using solid formulations, tablets were dissolved in water to form a gel. The gel was then placed under the tongue of the mice instead of the tablet."}},
  "data": [
    {"compound": "Oc1ccc(C=Cc2cc(O)cc(O)c2)cc1", "note": "[resveratrol]", "values": [
      {"measurement": "Absorbability relative to orally administered resveratrol (Cmax and AUC of blood resveratrol levels)", "setting": "[1]", "result": "20 to 40", "unit": "times"}
    ]},
    {"compound": "insulin aspart", "values": [
      {"measurement": "Blood glucose levels / AUC0-240min, compared with subcutaneous delivery", "setting": "[2]", "result": "comparable to subcutaneous delivery of insulin aspart"}
    ]},
    {"compound": "insulin glargine", "values": [
      {"measurement": "Blood glucose levels 0-24 h, compared with subcutaneous delivery", "setting": "[3]", "result": "comparable to subcutaneous delivery of insulin glargine"}
    ]}
  ]
}
